Test results as given in PubChem BioAssay AID652241 (Broad Institute, 2013).
Inconclusive results are not listed. The source made the active and inactive calls.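 The calls were made as follows: active = fitted curve reaches activity 50 in the expected rising direction at or below the top valid tested dose; inconclusive = no clear call, values can overlap the other calls; inactive = activity in the wrong direction, and the rest.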

Target: Virion infectivity factor (Human immunodeficiency virus type 1 group M subtype B (isolate BH10)) + Virion infectivity factor (Human immunodeficiency virus type 1 group M subtype B (isolate BRU/LAI)) + Virion infectivity factor (Human immunodeficiency virus type 1 group M subtype B (isolate PCV12)) + Virion infectivity factor (Human immunodeficiency virus type 1 group M subtype B (isolate HXB2)) (UniProt P69720+P69721+P69722+P69723)
Test: dose-dependent disruption of HIV Vif self-association – imaging, HEK293T, cherry-picks, dose response (AID 652241);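 also: imaged cell signal that rises when Vif self-association is disrupted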
Conditions: HEK293T Vif multimerization imaging, 24 h

Cc1cccc(N2CCN(C(=O)c3cc4ccccc4oc3=O)CC2)c1C
activity, higher = inhibition (at 19.5 µM (top of the series)): inactive

Cc1cc(C)c2nc3sc(C(=O)N4CCOCC4)c(N)c3cc2c1
AC50: 1.85 µM

N#Cc1c2ccc(OCC(N)=O)cc2n2ccccc12
activity, higher = inhibition (at 19.5 µM (top of the series)): inactive

O=C(c1ccc2c(c1)OCO2)N(CC1CCCO1)C1(C(=O)NC2CCCC2)CCCCC1 (stereo not drawn)
activity, higher = inhibition (at 19.5 µM (top of the series)): inactive

O=C(NCc1ccccc1C(F)(F)F)c1cccc2c1C(=O)c1ccc(N3CCCCC3)cc1S2(=O)=O
AC50: 14.1 µM

O=c1sc(N2CCN(c3ccc(F)cc3)CC2)nc2ccsc12
activity, higher = inhibition (at 19.5 µM (top of the series)): inactive

COc1ccc(C(=O)Nc2c(Cl)cc(Cl)cc2C(=O)N2CCOCC2)cc1
activity, higher = inhibition (at 19.5 µM (top of the series)): inactive

Cc1cc(-c2nnc(SCC(=O)c3ccc(Cl)cc3)o2)no1
activity, higher = inhibition (at 19.5 µM (top of the series)): inactive

Cc1cc(C(=O)Nc2c(F)c(F)c(F)c(F)c2F)n(-c2ccccc2)n1
activity, higher = inhibition (at 19.5 µM (top of the series)): inactive

COc1ccc(CC(=O)OCC(=O)NCc2ccc(Cl)cc2)cc1
activity, higher = inhibition (at 19.5 µM (top of the series)): inactive

O=C(c1cc(COc2cccc3cccnc23)on1)N1CCC[C@H]1CO
activity, higher = inhibition (at 19.5 µM (top of the series)): inactive

Cc1ccc(C(c2cc(Cl)c3cccnc3c2O)N2CCN(C)CC2)cc1 (stereo not drawn)
AC50: 5.7 µM

Cc1cc(/C=C2\C(=N)N3C(SCc4ccccc4)=NSC3=NC2=O)c(C)n1Cc1ccccc1
activity, higher = inhibition (at 19.5 µM (top of the series)): inactive

COc1cccc(-c2cc(=O)c3cc(NC(=O)c4ccccc4)ccc3[nH]2)c1
AC50: 5.04 µM

COc1ccc(CNC(=O)Nc2cccs2)cc1OC
activity, higher = inhibition (at 19.5 µM (top of the series)): inactive

N#Cc1c(-c2ccccc2)cc(C2CC2)nc1SCC(=O)c1cccs1
activity, higher = inhibition (at 19.5 µM (top of the series)): inactive

CCOC(=O)C1(Cc2ccccc2)CCN(Cc2csc(C(C)=O)c2)CC1
activity, higher = inhibition (at 19.5 µM (top of the series)): inactive

O=C(C1COc2ccccc2O1)N1CCN(Cc2ccc3c(c2)OCO3)CC1 (stereo not drawn)
activity, higher = inhibition (at 19.5 µM (top of the series)): inactive

NS(=O)(=O)c1ccc(NC(=O)CCC(=O)N2CCOCC2)cc1
activity, higher = inhibition (at 19.5 µM (top of the series)): inactive

Cc1nnc(NC(=O)CSc2nnc(NC(=O)C(C)(C)C)s2)s1
activity, higher = inhibition (at 19.5 µM (top of the series)): inactive

Cc1ccc(-c2cc(C(=O)NCc3ccccn3)c3ccccc3n2)cc1C
activity, higher = inhibition (at 19.5 µM (top of the series)): inactive

O=C(CCCSc1nc2ccccc2c(=O)[nH]1)c1ccccc1
activity, higher = inhibition (at 19.5 µM (top of the series)): inactive

CCOc1ccc2c(C)c(C(=O)O)oc2c1OCC
activity, higher = inhibition (at 19.5 µM (top of the series)): inactive

N#Cc1c(C(F)(F)F)cc(-c2ccco2)nc1SCc1ccncc1
AC50: 15.8 µM

COC(CNC(=O)C1CCN(C(=O)c2cc3oc(C)cc3n2Cc2c(F)cccc2Cl)CC1)OC
activity, higher = inhibition (at 19.5 µM (top of the series)): inactive

Cc1ccc(NC(=O)/C=C/C(=O)O)c(NC(=O)c2ccccc2)c1
activity, higher = inhibition (at 19.5 µM (top of the series)): inactive

Cc1nc(NC(=O)C(C)Oc2cccc(Cl)c2)sc1C(=O)N(C)C (stereo not drawn)
activity, higher = inhibition (at 2.1 µM (top of the series)): inactive

COc1ccc(C(=O)c2sc3nc(C)cc(-c4cccs4)c3c2N)cc1OC
activity, higher = inhibition (at 6.8 µM (top of the series)): inactive

CCOC(=O)Nc1ccc(NCc2ccc(F)cc2)nc1N
activity, higher = inhibition (at 19.5 µM (top of the series)): inactive

CCOC(=O)C[C@@H](C#N)NC(=O)[C@@H]1CCCN1C(=O)[C@@H](NC(=O)c1ccc(N)c(Cl)c1)C(C)(C)C
activity, higher = inhibition (at 19.5 µM (top of the series)): inactive

CCn1c(SCc2ccc(C(=O)Nc3nccs3)cc2)nnc1-c1ccc(N)cc1
activity, higher = inhibition (at 19.5 µM (top of the series)): inactive

Cc1nnc2ccc(-c3cccc(NS(=O)(=O)c4ccccc4Cl)c3)nn12
AC50: 14.1 µM

CC(=O)Nc1ccc(-c2ccnc3c2CC(C(=O)NCc2ccccc2)O3)cc1 (stereo not drawn)
AC50: 1.28 µM

O=C(NCc1ccccn1)c1ccc(Cn2c(=S)[nH]c3ccc(Br)cc3c2=O)cc1
activity, higher = inhibition (at 19.5 µM (top of the series)): inactive

COc1ccccc1Nc1nnc(C)c(=O)[nH]1
activity, higher = inhibition (at 19.5 µM (top of the series)): inactive

COc1ccccc1C(=O)COC(=O)C1(C)CC1(Cl)Cl (stereo not drawn)
activity, higher = inhibition (at 19.5 µM (top of the series)): inactive

Cc1ccc(NC(=O)Cn2ncn3c(cc4ccccc43)c2=O)c(C)c1
activity, higher = inhibition (at 19.5 µM (top of the series)): inactive

COc1ccc(CNC(=O)COC(=O)c2cc(S(=O)(=O)N3CCOCC3)ccc2O)cc1OC
activity, higher = inhibition (at 19.5 µM (top of the series)): inactive
